Paper PMC12079500, “An Intracellular Peptide Library Screening Platform Identifies Irreversible Covalent Transcription Factor Inhibitors” (Advanced Science, 2025)
*1 amine or outer side, *2 acyl side, *3 side chain or, on linkers, in order; H or OH if unused. Where a SMILES comes first, the peptide text is derived from it. Bridges are numbered along the chain shown (N, C = ends). [ ]: non-standard residue; d: D form. The star is where a group is joined. Met(S-mXyl) = C[S+](CC[C@H](N[*:1])C(=O)[*:2])Cc1cccc(C[*:3])c1; 5FAM = O=C1OC2(c3ccc(O)cc3Oc3cc(O)ccc32)c2ccc(C(=O)*)cc21

Tests used:
SK-MEL-28 cells [1] = test: MTT cell viability assay; type: cell-based, human; conditions: SK-MEL-28, 30 µM
Description: Cell viability assay: Cells were seeded at 15,000 cells per well in a 96-well plate and incubated for 24 hours before treatment with vehicle (1% DMSO in water) or peptide for 6 or 24 hours. The media was removed and the cells were washed twice with PBS before 50 µL of MTT (1 mg/mL in PBS, Merck) was added and incubated at 37°C for 30 minutes. The MTT solution was removed and 100 µL isopropanol was added to each well and rocked at room temperature for 5 minutes. Absorbance at 595 nm was measured using a Clariostar plate reader. Unless otherwise stated, all data are reported as an average of three independent biological experiments, with each data point determined in triplicate (i.e. 9 measurements) and reported as the mean with errors given as one standard deviation. For data with one independent measurement, each data point was determined in triplicate i.e. 3 measurements and reported as the mean with errors given as one standard deviation.

SK-MEL-28 cells [2] = test: Cell imaging of FAM-peptide uptake; type: cell-based, human; conditions: SK-MEL-28, 10 and 30 µM, 6 h, 37 °C, fixed, DAPI counterstain, fluorescence microscopy
Description: Cell imaging: Cells were seeded at 40,000 cells per well in a […] and incubated for 24 hours before treatment with vehicle (1% DMSO in water) or peptide for 6 hours. The media was removed and the cells were washed 3x with PBS. 1 mL of paraformaldehyde (80 mg/mL in PBS) was added and incubated at room temperature for 10 minutes. The paraformaldehyde was removed and fixed cells were washed with 3x PBS. 500 µL of DAPI (1 µg/mL) was then added and incubated at room temperature for 5 minutes following by a 3x PBS wash. Cells were imaged using an Evos FL digital inverted fluorescence microscope using brightfield and both GFP (for the FAM label) and DAPI fluorescence filters.

cJun = cJun (Homo sapiens, UniProt P05412); test: Western blot of cJun levels in cell lysate after peptide addition; type: biochemical; parameters: endogenous in cells; host or cells: SK-MEL-28; conditions: SK-MEL-28 cell lysate with protease inhibitor cocktail, 30 µM peptide, 37 °C, 5 mM TCEP, pH 7.4, western blot over time
Description: Figure S25 – cJun protein levels in SK-MEL-28 cell lysate (with the addition of Roche cOmplete protease inhibitor cocktail) upon addition of 30 µM FAM-HW33-NLSTAT, determined over time by western blot. Cells were lysed by sonication in 20 mM KP, 150 mM NaCl, 5 mM TCEP, pH 7.4 and incubated at 37°C after peptide addition. Uncropped blots are also shown.

CREB1 = CREB1 (Homo sapiens, UniProt P16220); test: Selectivity: incubation with CREB1 monitored by SDS-PAGE; type: biochemical; conditions: HW33 40 µM + CREB1 20 µM, 24 h
Description: The selectivity of this reaction, which is highly proximity‐driven, was first investigated by incubating HW33 (40 µM) with CREB1 (20 µM), a closely related bZIP‐containing TF that contains a Cys residue at the same position within the bZIP domain as cJun. Moreover, CREB1 contains two additional Cys residues located within the LZ domain that are not found within cJun. […] To further investigate HW33 selectivity for cJun, a reaction was next undertaken in SK‐MEL‐28 human melanoma cell lysate using FAM‐HW33, in which the N‐terminal acetyl group of HW33 was replaced with carboxyfluorescein to allow for peptide detection (Figure S17, Supporting Information). Samples containing cJun bZIP (20 µM) and FAM‐HW33 (20 µM) were incubated with or without lysate (10 µg) at 37 °C for 4 h before analysis by SDS‐PAGE (Figure 4E). […]
Covalent conjugation assays: Initial tests were performed by incubation of HW32 and HW33 (40 µM) with cJun bZIP (20 µM) in 50 mM potassium phosphate butter, 150 mM NaCl, pH 7.4 at 37°C, shaking at 450 rpm. […] The samples were analysed by LC-MS on a Luna C18(2) column (5-μm particle size, 100 Å pore size, 150 × 4.6 mm; Phenomenex). The % occupancy was determined by the ratio of conjugated cJun over total cJun as determined by the area under the peaks in the chromatogram measured at a 215 nm wavelength, with their identity confirmed by ESI-MS. […]

cJun/TRE DNA = biological target: T1, cJun/TRE DNA (Homo sapiens, UniProt P05412); test: CD cJun/TRE DNA antagonism assay (TRE DNA signal at 281 nm); type: biochemical
T1 construct: LC-MS analysis of the cJun bZIP domain; made in house
Source text: CD antagonism experiments were next carried out, as previously described,^[ [13], [18] ^] whereby the structure of a TRE DNA duplex was monitored by following a peak at 281 nm, which shifts upon binding to cJun. The introduction of antagonist to the sample causes the peak to shift back to its unbound signal in a dose‐dependent manner as the cJun is sequestered, leaving unbound DNA in its original structure (Figure S9, Supporting Information). As there is no protein absorbance in this region of the CD spectrum, this measures DNA structure only and produces a simple readout of the proportion of free/cJun‐bound DNA at different antagonist concentrations. By fitting these plots to a Hill equation (OriginPro), IC50 values for HW1, HW29, and HW31 were determined in both reducing and oxidizing conditions (Table S1, Supporting Information; Figure 3C).
Circular dichroism (CD): An Applied Photophysics Chirascan was used for CD measurements, with a 200 µL sample in a 1 mm path length CD cell. Protein/DNA samples were suspended in 20 mM potassium phosphate,150 mM potassium fluoride at pH 7.4 with or without 5 mM TCEP. cJun was added to TRE DNA (5’-[…], Merck) before addition of antagonist peptide and these samples were equilibrated for 30 minutes before measurement.^[13] For full spectra, three scans between 190 and 260 nm (265-320 nm for DNA binding experiments) were collected with a bandwidth of 1 nm and data sampled at a rate of 0.5 s^-1. These scans were averaged and converted to molar residue ellipticities (MRE). Thermal denaturation experiments were performed by measuring the ellipticity at 222 nm over a 1 to 95°C gradient at 1°C increments. Post-melt scans at 20°C confirmed the transitions were reversible as they overlaid within 5% of the pre-melt scan. The resulting thermal denaturation curves were converted to MRE and fitted to a two-state model, derived via modification of the Gibbs–Helmholtz equation to determine the melting temperature (Tm) ^[26].

cJun/FAM-TRE DNA = biological target: T2, cJun/FAM-TRE DNA (Homo sapiens, UniProt P05412); test: Fluorescence polarisation cJun/FAM-TRE DNA antagonism time course; type: biochemical; conditions: 10 nM FAM-TRE, 625 nM cJun, peptide 10000-20 nM, 5 mM TCEP, pH 7.4; quadruplicate
T2 construct: LC-MS analysis of the cJun bZIP domain; made in house
T2 sequence (P05412 252-315 limits assumed): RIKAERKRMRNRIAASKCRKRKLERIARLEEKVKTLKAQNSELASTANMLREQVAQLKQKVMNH

T1 sequence (P05412 252-315 limits assumed): as above
Chain of CREB1 (P16220 whole entry, species assumed, the tested form may be a part): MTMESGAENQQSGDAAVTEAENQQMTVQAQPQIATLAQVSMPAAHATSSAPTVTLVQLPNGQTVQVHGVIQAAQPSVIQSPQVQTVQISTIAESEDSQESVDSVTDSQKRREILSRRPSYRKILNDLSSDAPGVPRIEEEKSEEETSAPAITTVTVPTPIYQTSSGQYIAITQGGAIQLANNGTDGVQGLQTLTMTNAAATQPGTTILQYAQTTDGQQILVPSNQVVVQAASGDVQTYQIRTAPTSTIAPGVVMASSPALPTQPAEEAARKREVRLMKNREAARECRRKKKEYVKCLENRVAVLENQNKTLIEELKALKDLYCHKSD
Chain of cJun (P05412 whole entry): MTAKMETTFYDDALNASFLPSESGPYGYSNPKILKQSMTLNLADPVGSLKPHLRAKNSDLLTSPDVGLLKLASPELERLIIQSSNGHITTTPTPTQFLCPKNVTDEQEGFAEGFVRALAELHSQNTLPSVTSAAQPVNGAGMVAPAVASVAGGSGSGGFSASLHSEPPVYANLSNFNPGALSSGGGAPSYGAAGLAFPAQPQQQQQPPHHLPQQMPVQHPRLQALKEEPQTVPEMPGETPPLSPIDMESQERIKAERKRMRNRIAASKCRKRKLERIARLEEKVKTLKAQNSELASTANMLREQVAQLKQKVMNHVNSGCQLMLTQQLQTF

5FAM-E[Met(S-mXyl)]EELCVEEDVLEEEIEQLEERNYALRKEIKDLQDQPKKKRKVYGRKKRRQRRR-NH2 (thioether 2-6; lactam 31-35) [FAM-HW33-NLSTAT]
Fold larger reduction in cell viability relative to HW1 (SK-MEL-28 cells [1]): 2.2 x | Cellular uptake (FAM fluorescence within cells) (SK-MEL-28 cells [2]): FAM fluorescence was observed within the cells | cJun depletion in cell lysate (cJun): cJun depletion effect was also observed in cell lysate

CC[C@H](C)[C@H](NC(=O)[C@H](CCC(=O)O)NC(=O)[C@H](CCCCN)NC(=O)[C@H](CCCNC(=N)N)NC(=O)[C@H](CC(C)C)NC(=O)[C@H](C)NC(=O)[C@H](Cc1ccc(O)cc1)NC(=O)[C@H](CC(N)=O)NC(=O)[C@H](CCCNC(=N)N)NC(=O)[C@H](CCC(=O)O)NC(=O)[C@H](CCC(=O)O)NC(=O)[C@H](CC(C)C)NC(=O)[C@H](CCC(N)=O)NC(=O)[C@H](CCC(=O)O)NC(=O)[C@@H](NC(=O)[C@H](CCC(=O)O)NC(=O)[C@H](CCC(=O)O)NC(=O)[C@H](CCC(=O)O)NC(=O)[C@H](CC(C)C)NC(=O)[C@@H](NC(=O)[C@H](CC(=O)O)NC(=O)[C@H](CCC(=O)O)NC(=O)[C@H](CCC(=O)O)NC(=O)[C@@H](NC(=O)[C@@H]1CSCc2cccc(c2)C[S+](C)CC[C@H](NC(=O)[C@H](CCC(=O)O)NC(C)=O)C(=O)N[C@@H](CCC(=O)O)C(=O)N[C@@H](CCC(=O)O)C(=O)N[C@@H](CC(C)C)C(=O)N1)C(C)C)C(C)C)[C@@H](C)CC)C(=O)N[C@H]1CCCCNC(=O)C[C@@H](C(=O)N[C@@H](CCC(N)=O)C(N)=O)NC(=O)[C@H](CCC(N)=O)NC(=O)[C@H](CC(C)C)NC(=O)[C@H](CC(=O)O)NC1=O (stereo partly shown) [HW33] (Ac-E[Met(S-mXyl)]EELCVEEDVLEEEIEQLEERNYALRKEIKDLQDQ-NH2; thioether 2-6; lactam 31-35)
Conjugation with CREB1 (CREB1): no conjugation observed | Fold increase in antagonism over the 4 h time course (cJun/TRE DNA; CD antagonism time course): 5 fold | Time dependence of CD antagonism compared with HW1 (cJun/TRE DNA; IC50 plotted over time): improved antagonism over HW1 after 60 min | Time dependence of FP antagonism compared with HW1 (cJun/FAM-TRE DNA): improved antagonism over HW1 after 240 minutes
